Source: patent publication US20240156790A1, “COMPOUNDS, COMPOSITIONS, AND METHODS FOR MODULATING FERROPTOSIS AND TREATING EXCITOTOXIC DISORDERS” (THE TRUSTEES OF COLUMBIA UNIVERSITY IN THE CITY OF NEW YORK, priority 2018, published 2024)
pIC50: −log10 of the molar value. “Also recorded” adds a separate entry of the source.

Columns and labels:
HT-1080 cells = assay: Cell viability assays in HT-1080 cells, ferroptosis induced by IKE or RSL3 (Example 8); type: cell-based; conditions: for pIC50: Homo sapiens, HT-1080, 48 h
[1] = system: R6/2 Huntington's mouse model; assay: 30-day toxicity study in symptomatic R6/2 and wild type mice; type: in vivo; conditions: for tolerability of chronic administration: 20 mg/kg daily for 30 days, IP and PO; for protection against body weight loss / deaths after 30 days: R6/2 mice; for deaths after 30 days: 20 mg/kg daily
Description: In order to assess whether ferrostatins can be used in a long-term efficacy, we performed a toxicity study with the three analogs to determine whether symptomatic R6/2 mice could tolerate chronic administration of analog. Use TH-4-55-2 as an example: symptomatic R6/2 mice of both sexes at ˜10 weeks of age were dosed daily with 20 mg/kg TH-4-55-2 via both IP and oral gavage for 30 days. Body weight was measured and recorded and the % change in body weight from the baseline calculated. Any mice that lost more than 20% of their body weight for three days were euthanized prior to the completion of the study.
Ferrostatin analogs were dissolved in 5% DMSO/95% of 1:1 [(65% v/v of 25% w/v 2-hydroxypropyl-β-cyclodextrin dissolved in 20% EtOH, 30% v/v Poly(ethylene glycol)-400, 5% v/v Tween 80):MilliQ water] to create a 2 mg/mL solution. The same formulation without analog was used as a vehicle control. The solution was sterilized using a […] Steriflip filter unit. C57BL/6 and R6/2 mice at ˜10 weeks of age, after onset of symptoms in R6/2 mice, were injected with ferrostatin analog or vehicle at a dose of 20 mg/kg daily for 30 days via IP and PO routes of administration. […] Mice were randomly assigned to each condition, weighed daily, the weight recorded, and the change in body weight compared to the baseline, pre-injection weight was calculated. Any mouse that lost more than 20% of its baseline body weight for three consecutive days was euthanized prior to the completion of the study. Injections occurred daily at the same time in the day to ensure consistency. Experimental blinding was achieved by separating the syringe preparation and the injection and data analysis components, with one researcher preparing the syringes and the other injecting the mice and analyzing the data. Unblinding occurred at the termination of the study after the completion of data analysis. Data were plotted and analyzed in Graph Pad Prism 9.0 with significance determined via Two Way ANOVA or Mixed-effects model with Tukey's test for multiple comparisons.
Symptomatic R6/2 and age-matched C57BL/6 wild type mice of both sexes at ˜10 weeks of age were dosed daily with 20 mg/kg of TH-4-55-2 via IP or PO for 30 days. Body weight was measured and recorded and the percent change in body weight from baseline calculated. Per IACUC guidelines, any mouse that lost more than 20% body weight for three days was euthanized prior to completion of the study.

[2] = ^b 2 μM IKE, 48 hours, 1,000 cells/well
[3] = ^c 0.2 μM RSL3, 48 hours, 1,000 cells/well

Row | SMILES | pIC50 (HT-1080 cells; [2]) | pIC50 (HT-1080 cells; [3]) | potency relative to fer-1 at suppressing ferroptosis, in words (HT-1080 cells) | tolerability of chronic administration [1] | protection against body weight loss ([1]; PO administration, 20 mg/kg) | deaths after 30 days ([1]; IP administration) | deaths after 30 days ([1]; PO administration, 20 mg/kg)
1 | CCOC(=O)c1ccc(NC2CCCCC2)c(N)c1 [Fer-1, Ferrostatin-1, reference compound] | 8.04 | 8.44 |  |  |  |  | 
2 | Cc1noc(-c2ccc(NC3CCCCC3)c(NC3CCCCC3)c2)n1 [PHB4082, N1,N2-dicyclohexyl-4-(3-methyl-1,2,4-oxadiazol-5-yl)benzene-1,2-diamine] |  |  | more potent than fer-1 |  |  |  | 
3 | Cc1noc(-c2cnc(NC3CCCCC3)c(NC3CCCCC3)c2)n1 [TH-2-31, N^2,N^3-dicyclohexyl-5-(3-methyl-1,2,4-oxadiazol-5-yl)pyridine-2,3-diamine] | 8.25 | 8.32 | potencies greater than fer-1 | no detectable weight loss induced by either compound | didn't show this protective effect |  | 
4 | CCC(CC)Nc1cc(-c2nc(C)no2)cnc1NC1CCCCC1 [TH-4-55-2, N^2-cyclohexyl-5-(3-methyl-1,2,4-oxadiazol-5-yl)-N^3-(pentan-3-yl)pyridine-2,3-diamine] |  |  |  | well-tolerated in a 30-day toxicity study in wild-type mice and symptomatic R6/2 HD mice; also recorded: non-toxic and well-tolerated by R6/2 mice | protected from body weight loss over time; also recorded: showed protection against HD-related weight loss; also recorded: showed a significant protective effect; also recorded: appeared to have no loss in body weight during the injection series | one TH-4-55-2-treated mouse died | one TH-4-55-2-treated mouse died; also recorded: one TH-4-55-2-treated mice died
5 | Cc1noc(-c2cnc(NC3CCCC3)c(NC3CCCC3)c2)n1 [TH-4-67, N^2,N^3-dicyclopentyl-5-(3-methyl-1,2,4-oxadiazol-5-yl)pyridine-2,3-diamine] |  |  |  | no detectable weight loss induced by either compound | didn't show this protective effect |  | 
